Assay: Activity against adenosine diphosphate (ADP) induced platelet aggregation

Row | SMILES | IC50 [µM]
1 | CCCCCCOc1c(OC)cc(CCCCc2scnc2C)cc1OC [5-[4-(4-Hexyloxy-3,5-dimethoxy-phenyl)-butyl]-4-methyl-thiazole] | 13.5
2 | CCCCCCCCCCOc1c(OC)cc(C(=O)OCC[N+](C)(C)C)cc1OC [[2-(4-Decyloxy-3,5-dimethoxy-benzoyloxy)-ethyl]-trimethyl-ammonium; iodide] | 2
3 | CCCCCCOc1c(OC)cc(C(=O)OCc2ccccc2C[N+](C)(C)C)cc1OC [[2-(4-Hexyloxy-3,5-dimethoxy-benzoyloxymethyl)-benzyl]-trimethyl-ammonium; iodide] | 16
4 | CCCCCCCCOc1c(OC)cc(C(=O)OCCCC[N+](C)(C)C)cc1OC [[4-(3,5-Dimethoxy-4-octyloxy-benzoyloxy)-butyl]-trimethyl-ammonium; iodide] | 13.8
5 | CCCCCCOc1c(Cl)cc(C(=O)OCCCC[N+](C)(C)C)cc1OC [[4-(3-Chloro-4-hexyloxy-5-methoxy-benzoyloxy)-butyl]-trimethyl-ammonium; iodide] | 9.6
6 | CCCCCCCCCCCCCCCCOc1c(OC)cc(C(=O)OCCCC[N+](C)(C)C)cc1OC [[4-(4-Hexadecyloxy-3,5-dimethoxy-benzoyloxy)-butyl]-trimethyl-ammonium; iodide] | 2.9
7 | CCCCCCOc1c(C)cc(C(=O)OCCCC[N+](C)(C)C)cc1C [[4-(4-Hexyloxy-3,5-dimethyl-benzoyloxy)-butyl]-trimethyl-ammonium; iodide] | 12
8 | CCCCCCOc1ccc(C(=O)OCCCC[N+](C)(C)C)cc1 [[4-(4-Hexyloxy-benzoyloxy)-butyl]-trimethyl-ammonium; iodide] | 22.5

— BindingDB's records for doi:10.1021/jm00012a012 (Wellcome Research Laboratories, 1995)
